Assay results as given in the NIST ThermoML archive (doi:10.1021/je900916e).
± gives the expanded uncertainty stated by the source.

Test: cn = amount concentration of the nth substance listed, in mol/dm3
Settings: 101 kPa, Liquid, Advanced Condctivity Orion 162A

N.O=C(O)C(F)(F)C(F)(F)C(F)(F)C(F)(F)C(F)(F)C(F)(F)C(F)(F)F [ammonium perfluorooctanoate] + O
electrical conductivity [S/m]
Settings	303.15 K	308.15 K	313.15 K	318.15 K
c1 = 0.002632	–	0.0291 ± 0.0001	0.0318 ± 0.0001	0.0344 ± 0.0001
c1 = 0.005195	–	0.0556 ± 0.0001	0.0606 ± 0.0001	0.0656 ± 0.0001
c1 = 0.007692	–	0.0802 ± 0.0002	0.0875 ± 0.0002	0.0948 ± 0.0002
c1 = 0.01013	–	0.1034 ± 0.0002	0.1126 ± 0.0002	0.1225 ± 0.0003
c1 = 0.0125	–	0.1244 ± 0.0003	0.1364 ± 0.0003	0.1474 ± 0.0003
c1 = 0.01481	–	0.1452 ± 0.0003	0.1592 ± 0.0003	0.1726 ± 0.0003
c1 = 0.01707	–	0.165 ± 0.0003	0.1811 ± 0.0004	0.1968 ± 0.0004
c1 = 0.01928	–	0.1844 ± 0.0004	0.2025 ± 0.0004	0.219 ± 0.0004
c1 = 0.02143	–	0.203 ± 0.0004	0.223 ± 0.0004	0.241 ± 0.0005
c1 = 0.02353	–	0.22 ± 0.0004	0.241 ± 0.0005	0.262 ± 0.0005
c1 = 0.02558	0.2125 ± 0.0004	0.232 ± 0.0005	0.256 ± 0.0005	0.279 ± 0.0006
c1 = 0.02759	0.221 ± 0.0004	0.242 ± 0.0005	0.267 ± 0.0005	0.292 ± 0.0006
c1 = 0.02955	0.229 ± 0.0005	0.251 ± 0.0005	0.277 ± 0.0006	0.303 ± 0.0006
c1 = 0.03146	0.236 ± 0.0005	0.259 ± 0.0005	0.286 ± 0.0006	0.313 ± 0.0006
c1 = 0.03333	0.243 ± 0.0005	0.267 ± 0.0005	0.295 ± 0.0006	0.323 ± 0.0006
c1 = 0.03516	0.2495 ± 0.0005	0.274 ± 0.0006	0.303 ± 0.0006	0.3325 ± 0.0007
c1 = 0.03696	0.256 ± 0.0005	0.281 ± 0.0006	0.311 ± 0.0006	0.3415 ± 0.0007
c1 = 0.03957	0.2645 ± 0.0005	0.291 ± 0.0006	0.322 ± 0.0006	0.3535 ± 0.0007
c1 = 0.04211	0.273 ± 0.0005	0.301 ± 0.0006	0.333 ± 0.0007	0.3655 ± 0.0007
c1 = 0.04456	0.281 ± 0.0006	0.3105 ± 0.0006	0.344 ± 0.0007	0.377 ± 0.0008
c1 = 0.04694	0.289 ± 0.0006	–	0.354 ± 0.0007	–
c1 = 0.04772	–	0.322 ± 0.0006	–	0.3915 ± 0.0008
c1 = 0.05	0.299 ± 0.0006	–	0.367 ± 0.0007	–
c1 = 0.05074	–	–	–	0.4055 ± 0.0008
c1 = 0.05075	–	0.333 ± 0.0007	–	–
c1 = 0.05294	0.309 ± 0.0006	–	0.38 ± 0.0008	–
c1 = 0.05366	–	0.344 ± 0.0007	–	0.419 ± 0.0008
c1 = 0.05577	0.3185 ± 0.0006	–	–	–
